Patent US11285156B2, “Substituted piperazines as KRAS G12C inhibitors” (Amgen Inc., priority 2018, dated 2022)

Key:
[1] = target: GDP-bound KRAS protein (aa 1-169), containing both G12C and C118A amino acid substitutions (Homo sapiens (Human), UniProt P01116, C118A/G12C); test: Coupled nucleotide exchange assay (SOS-mediated nucleotide exchange, AlphaScreen); assay type: biochemical; conditions: read-out: Coupled exchange IC50 (5 min; μM); 5 min compound pre-incubation
[2] = test system: Phosphorylation of ERK1/2 in MIA PaCa-2 cells; test: Phospho-ERK1/2 MSD assay in MIA PaCa-2 cells; assay type: cell-based; conditions: Homo sapiens, MIA PaCa-2, 2 h, read-out: p-ERK IC50 (2 h, MiaPaCa-2; μM), 2 h compound treatment, MIA PaCa-2 cells, EGF stimulated
Summary of the method: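 Phospho-ERK1/2 measured by MSD electrochemiluminescence kit in RIPA lysates of MIA PaCa-2 cells. Cells were treated with compound titrations for 2 or 4 h at 37 °C, 5% CO2, followed by a 10 min pulse of 10 ng/mL EGF.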

[3] = test system: Phosphorylation of ERK1/2 in A549 cells; test: Phospho-ERK1/2 MSD assay in A549 cells; assay type: cell-based; conditions: Homo sapiens, A549, 2 h, read-out: p-ERK IC50 (2 h, A549; μM), 2 h compound treatment, A549 cells, EGF stimulated
Summary of the method: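 Readout: MSD phospho-ERK1/2 signal after compound (2 or 4 h) and 10 min EGF stimulation at 10 ng/mL.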

Sequence of GDP-bound KRAS protein (aa 1-169), containing both G12C and C118A amino acid substitutions (P01116 other isoform, or with tags, fused parts or gaps G12C/C118A): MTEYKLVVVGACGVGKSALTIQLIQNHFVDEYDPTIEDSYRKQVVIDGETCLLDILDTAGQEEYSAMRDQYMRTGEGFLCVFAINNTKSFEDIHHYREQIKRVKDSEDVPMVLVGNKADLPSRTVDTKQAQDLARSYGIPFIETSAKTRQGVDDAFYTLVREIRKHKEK

Row | Compound | IC50 [1] [µM] | IC50 [2] [µM] | IC50 [3] [µM]
1 | C=CC(=O)N1C[C@H](C)N(c2nc(=O)n(-c3c(C)ccnc3C(C)C)c3nc(-c4cccc(C#CC)c4)c(Cl)cc23)C[C@H]1C (atropisomer, axis not shown; (M)) [Example 92-49, (M)-6-Chloro-4-[(2S,5R)-2,5-dimethyl-4-prop-2-enoyl-piperazin-1-yl]-1-(2-isopropyl-4-methyl-3-pyridyl)-7-(3-prop-1-ynylphenyl) pyrido[2,3-d]pyrimidin-2-one] | 0.123 | 0.328 | > 7.5
2 | C=CC(=O)N1C[C@H](C)N(c2nc(=O)n(-c3c(C)ccnc3C(C)C)c3nc(-c4ccccc4Cl)c(Cl)cc23)C[C@H]1C (atropisomer, axis not shown; (M)) [Example 92-51, (M)-6-Chloro-7-(2-chlorophenyl)-4-[(2S,5R)-2,5-dimethyl-4-prop-2-enoyl-piperazin-1-yl]-1-(2-isopropyl-4-methyl-3-pyridyl)pyrido [2,3-d]pyrimidin-2-one] | 0.033 | 0.03 | > 7.5
3 | C=CC(=O)N1C[C@H](C)N(c2nc(=O)n(-c3c(C)ccnc3C(C)C)c3nc(-c4cccc(F)c4)c(Cl)cc23)C[C@H]1C (atropisomer, axis not shown; (M)) [Example 92-52, (M)-6-Chloro-4-[(2S,5R)-2,5-dimethyl-4-prop-2-enoyl-piperazin-1-yl]-7-(3-fluorophenyl)-1-(2-isopropyl-4-methyl-3-pyridyl)pyrido [2,3-d]pyrimidin-2-one] | 0.161 | 0.196 | > 7.5
4 | C=CC(=O)N1C[C@H](C)N(c2nc(=O)n(-c3c(C)ccnc3C(C)C)c3nc(-c4cccc(C)c4)c(Cl)cc23)C[C@H]1C (atropisomer, axis not shown; (M)) [Example 92-53, (M)-6-Chloro-4-[(2S,5R)-2,5-dimethyl-4-prop-2-enoyl-piperazin-1-yl]-1-(2-isopropyl-4-methyl-3-pyridyl)-7-(m-tolyl)pyrido[2,3-d]pyrimidin-2-one] | 0.135 | 0.309 | > 7.5
5 | C=CC(=O)N1C[C@H](C)N(c2nc(=O)n(-c3c(C)ccnc3C(C)C)c3nc(-c4cccc(Cl)c4)c(Cl)cc23)C[C@H]1C (atropisomer, axis not shown; (M)) [Example 92-54, (M)-6-Chloro-7-(3-chlorophenyl)-4-[(2S,5R)-2,5-dimethyl-4-prop-2-enoyl-piperazin-1-yl]-1-(2-isopropyl-4-methyl-3-pyridyl)pyrido [2,3-d]pyrimidin-2-one] | 0.169 | 0.217 | > 7.5
6 | C=CC(=O)N1C[C@H](C)N(c2nc(=O)n(-c3c(C)ccnc3C(C)C)c3nc(-c4ccccc4CC)c(Cl)cc23)C[C@H]1C (atropisomer, axis not shown; (M)) [Example 92-55, (M)-6-Chloro-4-[(2S,5R)-2,5-dimethyl-4-prop-2-enoyl-piperazin-1-yl]-7-(2-ethylphenyl)-1-(2-isopropyl-4-methyl-3-pyridyl)pyrido [2,3-d]pyrimidin-2-one] | 0.021 | 0.018 | > 7.5
7 | C=CC(=O)N1C[C@H](C)N(c2nc(=O)n(-c3c(C)ccnc3C(C)C)c3nc(-c4ccc(F)cc4)c(Cl)cc23)C[C@H]1C (atropisomer, axis not shown; (M)) [Example 92-57, (M)-6-Chloro-4-[(2S,5R)-2,5-dimethyl-4-prop-2-enoyl-piperazin-1-yl]-7-(4-fluorophenyl)-1-(2-isopropyl-4-methyl-3-pyridyl)pyrido [2,3-d]pyrimidin-2-one] | 0.126 | 0.126 | > 7.5
8 | C=CC(=O)N1C[C@H](C)N(c2nc(=O)n(-c3c(C)ccnc3C(C)C)c3nc(-c4cccc(C)c4F)c(Cl)cc23)C[C@H]1C (atropisomer, axis not shown; (M)) [Example 92-58, (M)-6-Chloro-4-[(2S,5R)-2,5-dimethyl-4-prop-2-enoyl-piperazin-1-yl]-7-(2-fluoro-3-methyl-phenyl)-1-(2-isopropyl-4-methyl-3-pyridyl)pyrido [2,3-d]pyrimidin-2-one] | 0.074 | 0.023 | > 7.5
9 | C=CC(=O)N1C[C@H](C)N(c2nc(=O)n(-c3c(C)ccnc3C(C)C)c3nc(-c4cccc(F)c4C)c(Cl)cc23)C[C@H]1C (atropisomer, axis not shown; (M)) [Example 92-59, (M)-6-Chloro-4-[(2S,5R)-2,5-dimethyl-4-prop-2-enoyl-piperazin-1-yl]-7-(3-fluoro-2-methyl-phenyl)-1-(2-isopropyl-4-methyl-3-pyridyl)pyrido [2,3-d]pyrimidin-2-one] | 0.028 | 0.034 | > 7.5
10 | C=CC(=O)N1C[C@H](C)N(c2nc(=O)n(-c3c(C)ccnc3C(C)C)c3nc(-c4cc(C)ccc4F)c(Cl)cc23)C[C@H]1C (atropisomer, axis not shown; (M)) [Example 92-60, (M)-6-Chloro-4-[(2S,5R)-2,5-dimethyl-4-prop-2-enoyl-piperazin-1-yl]-7-(2-fluoro-5-methyl-phenyl)-1-(2-isopropyl-4-methyl-3 pyridyl)pyrido [2,3-d]pyrimidin-2-one] | 0.02 | 0.018 | > 7.5
11 | C=CC(=O)N1C[C@H](C)N(c2nc(=O)n(-c3c(C)ccnc3C(C)C)c3nc(-c4ccc(F)cc4F)c(Cl)cc23)C[C@H]1C (atropisomer, axis not shown; (M)) [Example 92-61, (M)-6-Chloro-7-(2,4-difluorophenyl)-4-[(2S,5R)-2,5-dimethyl-4-prop-2-enoyl-piperazin-1-yl]-1-(2-isopropyl-4-methyl-3-pyridyl)pyrido [2,3-d]pyrimidin-2-one] | 0.008 | 0.027 | > 7.5
12 | C=CC(=O)N1C[C@H](C)N(c2nc(=O)n(-c3c(C)ccnc3C(C)C)c3nc(-c4cccc(F)c4OC)c(Cl)cc23)C[C@H]1C (atropisomer, axis not shown; (M)) [Example 92-62, (M)-6-Chloro-4-[(2S,5R)-2,5-dimethyl-4-prop-2-enoyl-piperazin-1-yl]-7-(3-fluoro-2-methoxy-phenyl)-1-(2-isopropyl-4-methyl-3-pyridyl)pyrido [2,3-d]pyrimidin-2-one] | 0.01 | 0.075 | > 7.5
13 | C=CC(=O)N1C[C@H](C)N(c2nc(=O)n(-c3c(C)ccnc3C(C)C)c3nc(-c4cccc(F)c4C(F)(F)F)c(Cl)cc23)C[C@H]1C (atropisomer, axis not shown; (M)) [Example 92-63, (M)-6-Chloro-4-[(2S,5R)-2,5-dimethyl-4-prop-2-enoyl-piperazin-1-yl]-7-[3-fluoro-2-(trifluoromethyl)phenyl]-1-(2-isopropyl-4-methyl-3-pyridyl)pyrido [2,3-d]pyrimidin-2-one] | 0.039 | 0.052 | > 7.5
14 | C=CC(=O)N1C[C@H](C)N(c2nc(=O)n(-c3c(C)ccnc3C(C)C)c3nc(-c4cccc(F)c4Cl)c(Cl)cc23)C[C@H]1C (atropisomer, axis not shown; (M)) [Example 92-64, (M)-6-Chloro-7-(2-chloro-3-fluoro-phenyl)-4-[(2S,5R)-2,5-dimethyl-4-prop-2-enoyl-piperazin-1-yl]-1-(2-isopropyl-4-methyl-3-pyridyl)pyrido [2,3-d]pyrimidin-2-one] | 0.039 | 0.044 | > 7.5
15 | C=CC(=O)N1C[C@H](C)N(c2nc(=O)n(-c3c(C)ccnc3C(C)C)c3nc(-c4cc(F)ccc4F)c(Cl)cc23)C[C@H]1C (atropisomer, axis not shown; (M)) [Example 92-65, (M)-6-Chloro-7-(2,5-difluorophenyl)-4-[(2S,5R)-2,5-dimethyl-4-prop-2-enoyl-piperazin-1-yl]-1-(2-isopropyl-4-methyl-3-pyridyl)pyrido [2,3-d]pyrimidin-2-one] | 0.066 | 0.046 | > 7.5
16 | C=CC(=O)N1C[C@H](C)N(c2nc(=O)n(-c3c(C)ccnc3C(C)C)c3nc(-c4cccc(F)c4F)c(Cl)cc23)C[C@H]1C (atropisomer, axis not shown; (M)) [Example 92-66, (M)-6-Chloro-7-(2,3-difluorophenyl)-4-[(2S,5R)-2,5-dimethyl-4-prop-2-enoyl-piperazin-1-yl]-1-(2-isopropyl-4-methyl-3-pyridyl)pyrido [2,3-d]pyrimidin-2-one] | 0.034 | 0.033 | > 7.5
17 | C=CC(=O)N1C[C@H](C)N(c2nc(=O)n(-c3c(C)ccnc3C(C)C)c3nc(-c4ccccc4OC)c(Cl)cc23)C[C@H]1C (atropisomer, axis not shown; (M)) [Example 92-67, (M)-6-Chloro-4-[(2S,5R)-2,5-dimethyl-4-prop-2-enoyl-piperazin-1-yl]-1-(2-isopropyl-4-methyl-3-pyridyl)-7-(2-methoxyphenyl) pyrido[2,3-d]pyrimidin-2-one] | 0.13 | 0.062 | > 7.5
